# Source: US20230407243A1, “GENETIC PLATFORM TO INVESTIGATE THE FUNCTIONS OF BACTERIAL DRUG EFFLUX PUMPS” (priority 2022, published 2023)
# Read-outs that look alike come from different tables or passages of the source.
# Assays:
# Type in all cases: cell-based, Escherichia coli
# [1] = system: EKO-35 araC::acrBD408A Pore; assay: MIC susceptibility profiling, porinated efflux platform; settings: for Fold changes of MICs: EKO-35 araC::acrBD408A Pore compared to EKO-35-Pore; for MIC: Escherichia coli, read-out: Minimum inhibitory concentration; for MIC / Minimum inhibitory concentration: EKO-35 araC::acrBD408A Pore, technical duplicate
# Procedure, shortened: (§1)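 MIC values come from background-corrected OD600 readings (pre-incubation OD subtracted) after 18 h at 37 °C and 900 rpm in MHB II. Compounds were tested in duplicate as 2-fold dilutions. The inoculum came from 18 h LB cultures adjusted to OD600 ~1.0 and diluted 1/2000, and the pore-bearing strains were vancomycin-checked beforehand.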
# [2] = system: EKO-35 araC::mdtBC Pore; assay: as above; settings: for Fold changes of MICs: EKO-35 araC::mdtBC Pore compared to EKO-35-Pore; for MIC: Escherichia coli, read-out: Minimum inhibitory concentration; for MIC / Minimum inhibitory concentration: EKO-35 araC::mdtBC Pore, technical duplicate
# Procedure, shortened: as §1
# [3] = system: EKO-35 araC::acrD Pore; assay: as above; settings: for Fold changes of MICs: EKO-35 araC::acrD Pore compared to EKO-35-Pore; for MIC: Escherichia coli, read-out: Minimum inhibitory concentration, EKO-35 araC::acrD Pore; for MIC / Minimum inhibitory concentration, EKO-35 araC::acrD Pore: Table 14A, porinated, technical duplicate
# Procedure, shortened: as §1
# [4] = system: EKO-35 araC::emrAB Pore; assay: as above; settings: for Fold changes of MICs: EKO-35 araC::emrAB Pore compared to EKO-35-Pore; for MIC: Escherichia coli, read-out: Minimum inhibitory concentration; for MIC / Minimum inhibitory concentration: EKO-35 araC::emrAB Pore, technical duplicate
# Procedure, shortened: as §1
# [5] = system: EKO-35 araC::mexCD Pore; assay: as above; settings: for Fold changes of MICs: EKO-35 araC::mexCD Pore compared to EKO-35-Pore; for MIC: Escherichia coli, read-out: Minimum inhibitory concentration; for MIC / Minimum inhibitory concentration: EKO-35 araC::mexCD Pore, technical duplicate
# Procedure, shortened: as §1
# [6] = system: EKO-35 araC::acrB Pore; assay: as above; settings: for Fold changes of MICs: EKO-35 araC::acr-B Pore compared to EKO-35-Pore; for MIC: Escherichia coli, read-out: Minimum inhibitory concentration, EKO-35 araC::acrB Pore; for MIC / Minimum inhibitory concentration, EKO-35 araC::acrB Pore: Table 14A, porinated, technical duplicate
# Procedure, shortened: as §1
# [7] = system: EKO-35-Pore; assay: MIC susceptibility profiling, porinated strain; settings: for Fold changes of MICs: EKO-35-Pore compared to EKO-35-Pore (reference); for MIC: Escherichia coli
# Experimental: For genomic integration of the pore, the fhuA ΔC/Δ4L gene and the adjacent gentamicin resistance cassette were amplified using a high-fidelity polymerase and the fhuA_40_Up/gImS_3680_Low primers (Table 4). Integration of the pore gene was performed as described above. The pore gene was introduced into the intergenic region between the glmS and pstS genes, with gene expression under the control of a constitutive promoter (Kearse, M. et al., 2012). Genomic integrations were verified using PCR (Primers: pstS_520_Up/glmS_3680_Low, Table 4). Successful integrations were transformed with pCP20 to remove the gentamicin resistance cassette as previously described. Activity of the pore was confirmed through susceptibility testing with the large antibiotic vancomycin prior to phenotypic profiling and further susceptibility testing.
# Single colonies were used to inoculate 3 mL of LB followed by incubation at 37° C. for 18 h with aeration at 220 rpm. The bacterial cells were harvested by centrifugation and resuspended in phosphate buffered saline (PBS) ([pH 7.4], 137 mM NaCl (Bioshop), 2.7 mM KCl (Bioshop), 10 mM Na2PO4 (Bioshop) and 1.8 mM K2PO4) to an OD600 nm˜1.0, followed by 1/2000 dilution into MHB II.
# To a 384-well microtiter plate (Corning, untreated polystyrene), 500 nL of compound was dispensed, in duplicate, and serially titrated 2-fold using an Echo 550 acoustic liquid dispenser (Labcyte Inc.). […] As a solvent control, 500 nL of DMSO was applied to wells that contained no compound. Using a multichannel pipette, 50 μL of the prepared bacterial inoculum was applied to each well. To enable background correction post-incubation, the OD600 nm was measured (Biotek Synergy Neo2 microplate reader) prior to incubation. The plates were incubated at 37° C. with aeration at 900 rpm for 18 h. The plates were equilibrated to room temperature and the OD600 nm measured using a BioTek Synergy Neo2 microplate reader. Data was analyzed in both Prism (GraphPad, Version 9.2.0) and Microsoft Excel (Version 16.53). Raw data were input into Microsoft Excel and the pre-incubation OD600 nm measurements were subtracted from the post-incubation OD600 nm measurements. These corrected measurements were input into Prism 9 as a grouped analysis. […] All other MIC values were adjusted accordingly and visualized using the single-color scale grouped heat map function. Identification of compound chemical properties was achieved using DataWarrior (Version 5.5.0). Using PubChem, the SMILES chemical notation for each compound was obtained and compiled in Microsoft Excel. The resulting spreadsheet was input into DataWarrior and properties were calculated from the compound chemical structures.
# [8] = Table 10, with pore, technical duplicate, read-out: Minimum inhibitory concentration (MIC), Pore EKO-35
# [9] = Table 14A, porinated, technical duplicate, read-out: Minimum inhibitory concentration, EKO-35-Pore
# [10] = Table 10, with pore, technical duplicate
# [11] = Table 14A, porinated, technical duplicate
Compound,Fold changes of MICs [1] [fold],Fold changes of MICs [2] [fold],Fold changes of MICs [3] [fold],MIC [3] [µg/mL],Fold changes of MICs [4] [fold],Fold changes of MICs [5] [fold],Fold changes of MICs [6] [fold],Fold changes of MICs [7] [fold],MIC [1] [µg/mL],MIC [2] [µg/mL],MIC [4] [µg/mL],MIC [5] [µg/mL],"MIC [7, 8] [µg/mL]","MIC [7, 9] [µg/mL]",Minimum inhibitory concentration [1] [µg/mL],Minimum inhibitory concentration [2] [µg/mL],"Minimum inhibitory concentration, EKO-35 araC::acrD Pore [3] [µg/mL]",Minimum inhibitory concentration [4] [µg/mL],Minimum inhibitory concentration [5] [µg/mL],"Minimum inhibitory concentration, EKO-35 araC::acrB Pore [6] [µg/mL]",other results
CN[C@@H]1[C@H](O)[C@H](NC)[C@H]2O[C@@]3(O)C(=O)C[C@@H](C)O[C@H]3O[C@@H]2[C@H]1O [Spectinomycin],1,1,2,25,1,1,2,1,–,–,–,–,–,–,–,–,–,–,–,–,MIC [6]: 25 µg/mL
COc1cccc2c1C(=O)c1c(O)c3c(c(O)c1C2=O)C[C@@](O)(C(=O)CO)C[C@@H]3O[C@H]1C[C@H](N)[C@H](O)[C@H](C)O1 [doxorubicin],1,4,1,0.781,1,4,64,1,0.781,3.12,0.781,3.12,0.781,0.781,–,–,–,–,–,–,efflux pump-mediated resistance vs EKO-35-Pore ([2]; MdtBC with the pore): associated with resistance
O=C(N[C@H](CO)[C@H](O)c1ccc([N+](=O)[O-])cc1)C(Cl)Cl [chloramphenicol],1,1,1,0.781,1,1,4,1,0.781,0.781,0.781,0.781,–,0.781,–,–,–,–,–,–,"MIC ([7]; read-out: Minimum inhibitory concentration (MIC), Pore EKO-35): 0.781 µg/mL"
CC(C)(C)c1cc(C(=O)NNC(=O)Nc2cccc3ccccc23)n(Cc2ccc(F)cc2)n1 [compound 4],1,1,4,–,8,16,128,1,–,–,–,–,–,–,2.5,2.5,10,20,40,320,"Minimum inhibitory concentration (MIC), Pore EKO-35 [7, 10]: 2.5 µg/mL; Minimum inhibitory concentration, EKO-35-Pore [7, 11]: 2.5 µg/mL"
Nc1ccccc1SCc1nc(-c2ccc(Cl)cc2)no1 [compound 16],1,1,1,–,16,16,32,1,–,–,–,–,–,–,5,5,5,80,80,160,"Minimum inhibitory concentration (MIC), Pore EKO-35 [7, 10]: 5 µg/mL; Minimum inhibitory concentration, EKO-35-Pore [7, 11]: 5 µg/mL"
C[C@@H]1O[C@@H]1P(=O)(O)O [fosfomycin],1,1,1,0.781,2,2,1,1,0.781,0.781,1.56,1.56,0.781,0.781,–,–,–,–,–,–,MIC [6]: 0.781 µg/mL
O=c1oc(-c2ccccc2Cl)nn1-c1ccc(C(F)(F)F)cn1 [compound 5],1,–,1,–,16,16,16,1,–,–,–,–,–,–,20,10,10,320,320,320,"Minimum inhibitory concentration (MIC), Pore EKO-35 [7, 10]: 20 µg/mL; Minimum inhibitory concentration, EKO-35-Pore [7, 11]: 20 µg/mL"
NC[C@H]1O[C@H](O[C@H]2[C@H](O)[C@@H](O[C@H]3O[C@H](CO)[C@@H](O)[C@H](N)[C@H]3O)[C@H](N)C[C@@H]2N)[C@H](O)[C@@H](O)[C@@H]1O [kanamycin],1,1,1,1.56,1,1,2,1,0.781,1.56,1.56,1.56,1.56,1.56,–,–,–,–,–,–,–
[H]/N=C(\N/C(=N/[H])NCCCCCCNC(=N)NC(=N)Nc1ccc(Cl)cc1)Nc1ccc(Cl)cc1 [Chlorhexidine],1,1,1,0.391,1,1,1,1,0.391,0.391,0.391,0.391,0.391,0.391,–,–,–,–,–,–,MIC [6]: 0.391 µg/mL
O=C(NC(=O)N1CCc2c([nH]c3ccccc23)C1C(F)(F)F)c1ccccc1 (stereo not shown) [compound 13],1,1,2,–,2,1,64,1,–,–,–,–,–,–,5,5,10,10,5,320,"efflux pump-mediated resistance vs EKO-35-Pore ([5]; MexCD, OM compromised): no longer associated MexCD with resistance; Minimum inhibitory concentration (MIC), Pore EKO-35 [7, 10]: 5 µg/mL; Minimum inhibitory concentration, EKO-35-Pore [7, 11]: 5 µg/mL"
